Patent US8519149B2, “Tricyclic compounds as mPGES-1 inhibitors” (Glenmark Pharmaceuticals S.A., priority 2010, dated 2013)

Target: T1, Recombinant human mPGES-1 (Homo sapiens, UniProt O14684)
T1 sequence (O14684 1-152): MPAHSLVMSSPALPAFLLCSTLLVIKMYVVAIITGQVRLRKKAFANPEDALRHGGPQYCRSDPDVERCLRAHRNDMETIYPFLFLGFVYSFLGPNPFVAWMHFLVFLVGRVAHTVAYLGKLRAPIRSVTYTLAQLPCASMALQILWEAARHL
Test: In-vitro mPGES-1 enzyme inhibition assay (PGE2 formation from PGH2, HTRF detection)
Assay type: biochemical
Conditions: for inhibition at 1 µM: 1 μM test compound, read-out: Percentage inhibition at 1 μM; for inhibition at 1 µM / inhibition at 10 µM: recombinant human mPGES-1 microsomal fraction; for inhibition at 10 µM: 10 μM test compound, read-out: Percentage inhibition at 10 μM; for IC50: class symbols, selected examples
Outline: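 IC50 values were derived by nonlinear regression of percent inhibition relative to enzyme reactions run without inhibitor. PGE2 formed from PGH2 with GSH was quantified by antibody-based HTRF after stannous chloride quench. Enzyme source was human mPGES-1 microsomes at 40-60 μg/mL protein; DMSO 0.5% (v/v).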

| inhibition at 1 µM [%] | inhibition at 10 µM [%] | IC50 [nM] | Compound |
| --- | --- | --- | --- |
| 95.8 | 99.6 | < 50 | CC1(C)Cc2c(c(C(=O)Nc3c(F)cccc3F)cc3nc(Nc4c(Cl)cccc4Cl)[nH]c23)O1 [Example-76, 2-[(2,6-Dichlorophenyl)amino]-N-(2,6-difluorophenyl)-7,7-dimethyl-7,8-dihydro-1H-furo[3,2-e]benzimidazole-5-carboxamide] |
| 96.8 | 99.8 | – | CC1(C)Cc2c(c(C(=O)NCC3CC3)cc3nc(Nc4c(Cl)cncc4Cl)[nH]c23)O1 [Example-21, N-(Cyclopropylmethyl)-2-[(3,5-dichloropyridin-4-yl)amino]-7,7-dimethyl-7,8-dihydro-1H-furo[3,2-e]benzimidazole-5-carboxamide] |
| 93.7 | 94.4 | < 50 | CC1(C)Cc2c(c(C(=O)NCc3ccccc3Br)cc3nc(Nc4c(Cl)cccc4Cl)[nH]c23)O1 [Example-84, N-(2-Bromobenzyl)-2-[(2,6-dichlorophenyl)amino]-7,7-dimethyl-7,8-dihydro-1H-furo[3,2-e]benzimidazole-5-carboxamide] |
| 99.9 | 99.4 | < 50 | CC1(C)Cc2c(c(C(=O)Nc3cc(C4CC4)ccc3F)cc3nc(Nc4c(F)cccc4Cl)[nH]c23)O1 [Example-134, 2-((2-Chloro-6-fluorophenyl)amino)-N-(5-cyclopropyl-2-fluorophenyl)-7,7-dimethyl-7,8-dihydro-1H-benzofuro[4,5-d]imidazole-5-carboxamide] |
| 19.6 | 39.2 | – | CC1(C)Cc2c(c(C(=O)Nc3cccc(C(F)(F)F)c3)cc3nc(NC(=O)c4c(F)cccc4Cl)[nH]c23)O1 [Example-143, 2-(2-Chloro-6-fluorobenzamido)-7,7-dimethyl-N-(3-(trifluoromethyl)phenyl)-7,8-dihydro-1H-benzofuro[4,5-d]imidazole-5-carboxamide] |
| 87.4 | 92.2 | < 50 | Cc1ccc(Nc2nc3cc(C(=O)Nc4ccc(C(F)(F)F)cc4)c4c(c3[nH]2)CC(C)(C)O4)c(Cl)c1 [Example-87, 2-[(2-Chloro-4-methylphenyl)amino]-7,7-dimethyl-N-[4-(trifluoromethyl)phenyl]-7,8-dihydro-1H-furo[3,2-e]benzimidazole-5-carboxamide] |
| 93.5 | 94.5 | < 50 | Cc1cccc(Cl)c1Nc1nc2cc(C(=O)Nc3cccc(C(F)(F)F)c3F)c3c(c2[nH]1)CC(C)(C)O3 [Example-164, 2-((2-Chloro-6-methylphenyl)amino)-N-(2-fluoro-3-(trifluoromethyl)phenyl)-7,7-dimethyl-7,8-dihydro-1H-benzofuro[4,5-d]imidazole-5-carboxamide] |
| 80.8 | 89.4 | < 50 | Cc1nc2c(o1)c(C(=O)Nc1ccc(F)cc1)cc1nc(Nc3c(Cl)cccc3Cl)[nH]c12 [Example-177, 7-[(2,6-Dichlorophenyl)amino]-N-(4-fluorophenyl)-2-methyl-8H-imidazo[4,5-e][1,3]benzoxazole-4-carboxamide] |
| 95.9 | 99.2 | < 50 | Cn1c(Nc2c(F)cccc2Cl)nc2cc(C(=O)Nc3cccc(C(F)(F)F)c3)c3c(c21)CC(C)(C)O3 [Example-139, 2-((2-Chloro-6-fluorophenyl)amino)-1,7,7-trimethyl-N-(3-(trifluoromethyl)phenyl)-7,8-dihydro-1H-benzofuro[4,5-d]imidazole-5-carboxamide] |
| 96.9 | 98.3 | < 50 | Cn1c(Nc2c(F)cccc2Cl)nc2cc(C(=O)Nc3ccc(C4CC4)cc3)c3c(c21)CC(C)(C)O3 [Example-167, 2-((2-Chloro-6-fluorophenyl)amino)-N-(4-cyclopropylphenyl)-1,7,7-trimethyl-7,8-dihydro-1H-benzofuro[4,5-d]imidazole-5-carboxamide] |
| 93.4 | 95.5 | < 50 | C[C@@H](NC(=O)c1cc2nc(Nc3c(Cl)cncc3Cl)[nH]c2c2c1OC(C)(C)C2)C(C)(C)C [Example-6] |
| 96.7 | 95.3 | < 50 | Cc1ccc(Cl)c(Nc2nc3cc(C(=O)Nc4ccccc4C(F)(F)F)c4c(c3[nH]2)CC(C)(C)O4)c1 [Example-97, 2-[(2-Chloro-5-methylphenyl)amino]-7,7-dimethyl-N-[2-(trifluoromethyl)phenyl]-7,8-dihydro-1H-furo[3,2-e]benzimidazole-5-carboxamide] |
| 19.3 | 22.8 | – | CC1(C)Cc2c(c(C(=O)Nc3ccc(C(F)(F)F)cc3)cc3nc(Nc4ccccc4C(C)(C)C)[nH]c23)O1 [Example-102, 2-[(2-tert-Butylphenyl)amino]-7,7-dimethyl-N-[4-(trifluoromethyl)phenyl]-7,8-dihydro-1H-furo[3,2-e]benzimidazole-5-carboxamide] |
| 93.7 | 97.4 | < 50 | Cc1nc2c(o1)c(C(=O)Nc1ccc(Br)cc1)cc1nc(Nc3c(Cl)cccc3Cl)[nH]c12 [Example-179, N-(4-Bromophenyl)-7-[(2,6-dichlorophenyl)amino]-2-methyl-8H-imidazo[4,5-e][1,3]benzoxazole-4-carboxamide] |
| 90.5 | 99 | < 50 | Cc1cccc(Cl)c1Nc1nc2cc(C(=O)Nc3cccc(C(C)(F)F)c3)c3c(c2[nH]1)CC(C)(C)O3 [Example-120, 2-[(2-Chloro-6-methylphenyl)amino]-N-[3-(1,1-difluoroethyl)phenyl]-7,7-dimethyl-7,8-dihydro-1H-furo[3,2-e]benzimidazole-5-carboxamide] |
| 97.8 | 98.3 | < 50 | CC1(C)Cc2c(c(C(=O)NC34CC5CC(CC(C5)C3)C4)cc3nc(Nc4c(Cl)cncc4Cl)[nH]c23)O1 [Example-19, N-Adamantan-1-yl-2-[(3,5-dichloropyridin-4-yl)amino]-7,7-dimethyl-7,8-dihydro-1H-furo[3,2-e]benzimidazole-5-carboxamide] |
| 83.1 | 80.9 | – | CC1(C)Cc2c(c(C(=O)NC3CCC(F)(F)CC3)cc3nc(Nc4c(Cl)cccc4Cl)[nH]c23)O1 [Example-93, 2-[(2,6-Dichlorophenyl)amino]-N-(4,4-difluorocyclohexyl)-7,7-dimethyl-7,8-dihydro-1H-furo[3,2-e]benzimidazole-5-carboxamide] |
| 98.9 | 99.7 | < 50 | Cn1c(Nc2c(F)cccc2Cl)nc2cc(C(=O)Nc3ccc(C(F)(F)F)cn3)c3c(c21)CC(C)(C)O3 [Example-157, 2-((2-Chloro-6-fluorophenyl)amino)-1,7,7-trimethyl-N-(5-(trifluoromethyl)pyridin-2-yl)-7,8-dihydro-1H-benzofuro[4,5-d]imidazole-5-carboxamide] |
| 92.4 | 98 | < 50 | Cc1cccc(Cl)c1Nc1nc2cc(C(=O)NC3(c4cccc(C(F)(F)F)c4)CC3)c3c(c2[nH]1)CC(C)(C)O3 [Example-132, 2-((2-Chloro-6-methylphenyl)amino)-7,7-dimethyl-N-(1-(3-(trifluoromethyl)phenyl)cyclopropyl)-7,8-dihydro-1H-benzofuro[4,5-d]imidazole-5-carboxamide] |
| 96.6 | 97.2 | < 50 | Cc1cccc(Cl)c1Nc1nc2cc(C(=O)Nc3cc(C(F)(F)F)ccc3F)c3c(c2[nH]1)CC(C)(C)O3 [Example-110, 2-[(2-Chloro-6-methylphenyl)amino]-N-[2-fluoro-5-(trifluoromethyl)phenyl]-7,7-dimethyl-7,8-dihydro-1H-furo[3,2-e]benzimidazole-5-carboxamide] |
| 100 | 100 | < 50 | CC1(C)CCCC(NC(=O)c2cc3nc(Nc4c(Cl)cncc4Cl)[nH]c3c3c2OC(C)(C)C3)C1 (stereo not drawn) [Example-14, 2-[(3,5-Dichloropyridin-4-yl)amino]-N-(3,3-dimethylcyclohexyl)-7,7-dimethyl-7,8-dihydro-1H-furo[3,2-e]benzimidazole-5-carboxamide] |
| 12 | 13.9 | – | CC1(C)Cc2c(c(C(=O)Nc3ccccc3C(F)(F)F)cc3nc(Nc4ccccc4C(C)(C)C)[nH]c23)O1 [Example-98, 2-[(2-tert-Butylphenyl)amino]-7,7-dimethyl-N-[2-(trifluoromethyl)phenyl]-7,8-dihydro-1H-furo[3,2-e]benzimidazole-5-carboxamide] |
| 93.9 | 98.4 | < 50 | Cc1cc2c(o1)c(C(=O)Nc1ccc(Br)cn1)cc1nc(Nc3c(Cl)cccc3Cl)[nH]c12 [Example-71, N-(5-Bromopyridin-2-yl)-2-[(2,6-dichlorophenyl)amino]-7-methyl-1H-furo[3,2-e]benzimidazole-5-carboxamide] |
| 96.9 | 98.1 | < 50 | CC1(C)Cc2c(c(C(=O)Nc3cc(C(F)F)ccc3F)cc3nc(Nc4c(F)cccc4Cl)[nH]c23)O1 [Example-131, 2-((2-Chloro-6-fluorophenyl)amino)-N-(5-(difluoromethyl)-2-fluorophenyl)-7,7-dimethyl-7,8-dihydro-1H-benzofuro[4,5-d]imidazole-5-carboxamide] |
| 70.8 | 96.7 | – | Cc1cc2c(o1)c(C(=O)NCc1ccc(F)cc1)cc1nc(Nc3c(F)cccc3Cl)[nH]c12 [Example-48, 2-[(2-Chloro-6-fluorophenyl)amino]-N-(4-fluorobenzyl)-7-methyl-1H-furo[3,2-e]benzimidazole-5-carboxamide] |
